The values below are quoted from earlier work in patent US6645979B2, “(7-(3-carboxyphenyl)-4-chloroisoquinolin-1-yl)guanidine” (Pfizer Inc., priority 2000, dated 2003).

This data set concerns the target urinary-type plasminogen activator (uPA, urokinase) (Homo sapiens, UniProt P00749). As to conditions: general statement, no value given.

On to `NC(N)=Nc1ncc(Cl)c2ccc(-c3cccc(C(=O)O)c3)cc12` [Compound (I), (7-(3-carboxyphenyl)-4-chloroisoquinolin-1-yl)guanidine], for which the uPA antagonist potency result was “potent”.
